In assay [1] the target is noradrenaline (NA) uptake (Rattus norvegicus, UniProt Q63380). Briefly: [3H]noradrenalin uptake into rat cortical synaptosomes. The assay is classed as biochemical. Conditions: read-out: Ki, block of noradrenaline transport. As for the experimental part: (§1) Inhibition of serotonin (5-HT), dopamine (DA) and noradrenaline (NA) uptake in vitro was measured in rat brain synaptosomes using a modification of a previously described protocol (Bøgesø et al., J Med Chem 1985, 28, 1817-1828). In brief, tritium labelled amines were used to measure uptake into synaptosomes from whole rat brain (excluding cerebellum) ([^3H]serotonin), rat striatal synaptosomes ([^3H]dopamine) or into rat cortical synaptosomes [^3H]noradrenalin. The dissected rat brain regions were homogenized in 0.40 M sucrose supplemented with 1 mM nialamid and centrifuged at 1000×g for 10 min. The supernatants were further centrifuged for 30 min at 20.000×g, 4° C. and resuspended in Krebs-Ringer buffer, pH 7.4 supplemented with 0.2 g/l ascorbic acid. Test compounds and membranes were added in 96 well plates and the incubation was started by adding either 10 nM [^3H]serotonin, 12.5 nM [^3H]dopamine or 10 nM [^3H]noradrenalin for 15 min at 37° C. except for [^3 H]dopamine uptake (5 min at 20° C.). Non-specific uptake was defined as uptake in the presence of 10 μM citalopram, 100 μM benttropin or 20 μM talsupram, respectively and accounted for 5-10% of total uptake. Samples were filtered over Whatman GF/C filters and the IC50's were estimated using non-linear regression analysis from at least 8 points dose-response curves with triplicate determinations.

A further assay relates to System A transporters. The note with it: at 5 mM; cultured rat hepatocytes; cited from earlier work.
For another assay, the target named is T1, serotonin (5-HT) uptake (Rattus norvegicus, UniProt P31652).
T1 construct: from tissue; host or cells: synaptosomes from whole rat brain excluding cerebellum
Nature of the assay: [3H]serotonin uptake into rat brain synaptosomes. The assay is classed as biochemical. As for the experimental part:
as §1

In assay [2] the target is T2, D-serine uptake in rat cerebellar synaptosomes (Rattus norvegicus, UniProt P63116).
T2 construct: from tissue; host or cells: rat cerebellar synaptosomes
T2 sequence (P63116 1-530): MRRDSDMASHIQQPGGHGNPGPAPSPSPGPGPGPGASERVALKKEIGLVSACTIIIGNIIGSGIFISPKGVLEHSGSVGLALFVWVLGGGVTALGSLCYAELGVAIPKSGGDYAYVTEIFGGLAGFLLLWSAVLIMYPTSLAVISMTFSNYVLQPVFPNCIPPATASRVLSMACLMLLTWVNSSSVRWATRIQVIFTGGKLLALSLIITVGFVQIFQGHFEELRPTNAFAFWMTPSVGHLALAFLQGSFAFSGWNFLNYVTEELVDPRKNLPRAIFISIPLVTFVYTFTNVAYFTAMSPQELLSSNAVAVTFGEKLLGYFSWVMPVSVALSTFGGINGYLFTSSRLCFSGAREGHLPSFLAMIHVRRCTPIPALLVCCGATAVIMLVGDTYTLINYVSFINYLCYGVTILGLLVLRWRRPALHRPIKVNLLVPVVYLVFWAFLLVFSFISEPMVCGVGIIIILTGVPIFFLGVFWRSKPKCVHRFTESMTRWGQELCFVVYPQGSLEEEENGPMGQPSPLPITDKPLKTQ
T2 sequence (Q794F9 1-527 partner): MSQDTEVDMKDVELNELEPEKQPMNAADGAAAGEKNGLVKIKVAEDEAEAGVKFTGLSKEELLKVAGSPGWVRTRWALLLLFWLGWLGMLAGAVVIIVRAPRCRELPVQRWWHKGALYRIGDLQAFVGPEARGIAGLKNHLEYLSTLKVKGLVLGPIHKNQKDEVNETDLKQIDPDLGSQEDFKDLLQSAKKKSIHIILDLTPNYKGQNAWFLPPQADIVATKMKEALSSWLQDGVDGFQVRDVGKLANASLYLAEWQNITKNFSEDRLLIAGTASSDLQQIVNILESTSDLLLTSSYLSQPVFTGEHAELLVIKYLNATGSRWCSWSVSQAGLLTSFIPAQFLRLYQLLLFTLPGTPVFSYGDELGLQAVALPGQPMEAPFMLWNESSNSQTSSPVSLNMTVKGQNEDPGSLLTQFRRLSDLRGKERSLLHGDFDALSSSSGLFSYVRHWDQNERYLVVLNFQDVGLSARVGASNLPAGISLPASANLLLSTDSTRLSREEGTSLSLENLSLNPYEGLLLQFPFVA
Briefly: [3H]D-serine uptake in rat cerebellar synaptosomes. It counts as biochemical.

A further assay concerns the target T3, dopamine (DA) uptake (Rattus norvegicus, UniProt P23977).
T3 construct: from tissue; host or cells: rat striatal synaptosomes
Nature of the assay: [3H]dopamine uptake into rat striatal synaptosomes. The assay is classed as biochemical. As for the experimental part:
as §1

A further assay deals with T4, human GlyT-1B (Homo sapiens, UniProt P48067).
T4 construct: expressed in transfected cells; host or cells: CHO cells
T4 sequence (P48067 1-652 isoform P48067-3): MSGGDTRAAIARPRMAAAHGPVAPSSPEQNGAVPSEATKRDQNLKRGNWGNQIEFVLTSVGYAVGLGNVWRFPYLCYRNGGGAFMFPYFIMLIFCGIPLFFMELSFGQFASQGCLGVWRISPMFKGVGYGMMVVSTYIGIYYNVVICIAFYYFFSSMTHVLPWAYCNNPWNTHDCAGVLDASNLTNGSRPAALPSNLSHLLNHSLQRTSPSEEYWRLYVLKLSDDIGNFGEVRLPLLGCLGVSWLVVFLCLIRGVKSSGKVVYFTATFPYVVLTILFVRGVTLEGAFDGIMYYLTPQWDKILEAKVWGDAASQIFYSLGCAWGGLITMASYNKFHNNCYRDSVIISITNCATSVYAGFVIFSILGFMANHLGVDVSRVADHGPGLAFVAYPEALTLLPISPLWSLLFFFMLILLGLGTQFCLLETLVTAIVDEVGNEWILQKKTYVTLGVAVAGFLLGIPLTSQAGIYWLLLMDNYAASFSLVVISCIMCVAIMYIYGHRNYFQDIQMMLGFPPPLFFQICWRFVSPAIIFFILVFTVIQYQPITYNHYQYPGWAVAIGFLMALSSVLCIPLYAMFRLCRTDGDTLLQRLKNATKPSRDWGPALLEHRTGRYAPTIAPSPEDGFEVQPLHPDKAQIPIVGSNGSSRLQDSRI
Nature of the assay: [3H]-glycine uptake into CHO cells expressing human GlyT-1B. The assay is classed as cell-based. As for the experimental part:
Measurements of [^3H]-glycine uptake into CHO cells expressing human GlyT-1B were performed in 96 well plates using 1 μCi [^3H]-glycine/well. Cells were plated 2 days before the experiment and washed twice with assay buffer (composition: 150 mM NaCl, 10 mM glucose, 2.5 mM KCl, 1 mM CaCl2, 2.5 mM MgSO4, 10 mM HEPES, pH 7.4). Test compounds were added 10 min before radioligand and cells were incubated for a further 15 min at 37° C. Cells were washed as described for [3 H]-D-serine uptake into asc-1 cells. Non-specific uptake was defined as uptake in the presence of 100 μM N-methyl-N-(phenyl-trifluoromethylphenoxy)propan-1-yl-glycine.

T3 sequence (P23977 whole entry): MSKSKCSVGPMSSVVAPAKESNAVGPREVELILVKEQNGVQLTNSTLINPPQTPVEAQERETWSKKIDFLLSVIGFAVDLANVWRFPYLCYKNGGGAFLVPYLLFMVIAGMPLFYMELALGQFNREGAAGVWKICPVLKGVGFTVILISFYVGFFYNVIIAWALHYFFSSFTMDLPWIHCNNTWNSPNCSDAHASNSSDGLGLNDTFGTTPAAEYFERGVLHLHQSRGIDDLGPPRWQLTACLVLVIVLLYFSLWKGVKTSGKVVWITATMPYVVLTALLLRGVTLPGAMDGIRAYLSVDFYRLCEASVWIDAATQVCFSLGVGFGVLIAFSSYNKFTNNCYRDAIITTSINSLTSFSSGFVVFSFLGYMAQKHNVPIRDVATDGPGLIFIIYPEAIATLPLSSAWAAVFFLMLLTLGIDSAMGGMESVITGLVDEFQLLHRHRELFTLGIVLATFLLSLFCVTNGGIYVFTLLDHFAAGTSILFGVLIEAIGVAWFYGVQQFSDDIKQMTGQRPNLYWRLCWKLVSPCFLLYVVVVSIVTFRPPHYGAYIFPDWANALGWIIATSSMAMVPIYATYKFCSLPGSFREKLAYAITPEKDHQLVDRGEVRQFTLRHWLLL
Chain of noradrenaline (NA) uptake (Q63380 1-617): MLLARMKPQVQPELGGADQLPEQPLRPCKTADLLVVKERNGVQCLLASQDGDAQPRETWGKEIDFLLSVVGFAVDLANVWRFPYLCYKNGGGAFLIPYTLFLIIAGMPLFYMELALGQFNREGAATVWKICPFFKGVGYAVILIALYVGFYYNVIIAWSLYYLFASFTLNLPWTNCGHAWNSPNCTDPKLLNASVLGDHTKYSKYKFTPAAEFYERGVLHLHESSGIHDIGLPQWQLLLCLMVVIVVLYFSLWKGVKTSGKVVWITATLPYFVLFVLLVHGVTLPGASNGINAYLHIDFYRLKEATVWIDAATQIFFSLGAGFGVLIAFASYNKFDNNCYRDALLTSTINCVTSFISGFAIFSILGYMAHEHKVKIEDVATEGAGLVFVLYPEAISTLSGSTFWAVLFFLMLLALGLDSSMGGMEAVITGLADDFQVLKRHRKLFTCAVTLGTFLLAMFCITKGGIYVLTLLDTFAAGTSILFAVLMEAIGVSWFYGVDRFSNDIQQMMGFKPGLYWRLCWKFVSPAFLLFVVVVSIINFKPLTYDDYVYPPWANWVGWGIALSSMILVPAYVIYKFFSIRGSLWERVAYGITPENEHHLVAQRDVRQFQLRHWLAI
T1 sequence (P31652 whole entry): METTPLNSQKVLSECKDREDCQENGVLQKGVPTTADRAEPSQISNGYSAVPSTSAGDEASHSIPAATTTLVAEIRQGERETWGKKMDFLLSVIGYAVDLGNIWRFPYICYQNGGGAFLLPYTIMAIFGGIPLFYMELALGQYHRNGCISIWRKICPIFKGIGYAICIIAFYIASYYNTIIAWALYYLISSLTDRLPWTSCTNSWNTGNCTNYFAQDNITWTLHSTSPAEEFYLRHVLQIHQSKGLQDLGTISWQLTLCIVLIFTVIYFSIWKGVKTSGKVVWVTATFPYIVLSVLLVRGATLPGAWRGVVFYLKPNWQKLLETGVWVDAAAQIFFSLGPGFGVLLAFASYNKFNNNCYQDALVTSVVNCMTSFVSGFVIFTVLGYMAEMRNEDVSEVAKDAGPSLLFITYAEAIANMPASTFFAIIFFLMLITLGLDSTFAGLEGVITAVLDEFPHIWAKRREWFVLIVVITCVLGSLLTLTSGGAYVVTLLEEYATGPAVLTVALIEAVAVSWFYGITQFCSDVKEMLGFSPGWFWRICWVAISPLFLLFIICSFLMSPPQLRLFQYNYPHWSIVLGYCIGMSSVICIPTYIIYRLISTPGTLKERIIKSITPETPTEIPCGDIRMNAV

Usually Ki stands for a dissociation constant, usually derived from enzyme kinetics or from competition with a known ligand. Consider `CSCC(N)C(=O)O` (stereo in doubt) [(S)-methyl-L-cysteine], for which the Ki was greater than 1000 µM in assay [1], greater than 1000 µM on serotonin (5-HT) uptake, greater than 1000 µM at dopamine (DA) uptake and greater than 100 µM at human GlyT-1B. In addition, the “inhibition of System A transporters ([3H]AIB transport)” value in the assay with System A transporters is 81%. In addition, the “inhibition of D-serine uptake in rat cerebellar synaptosomes (in words)” value in assay [2] was “potent and selective inhibitor”.

The values above are taken from patent US20050176826A1, “Use of asc-1 inhibitors to treat neurological and psychiatric disorders” (H. Lundbeck A/S, priority 2002, published 2005).
